The target in data set [1] is T1, human KOR (h-KOR) receptors (Homo sapiens, UniProt P41145).
T1 construct: expressed in transfected cells
In words: h-KOR agonist activity test (cAMP/CRE-luciferase reporter in HEK293/h-KOR/CRE cells). The class given is cell-based. To be noted: Forskolin, 4 hours, luciferase chemiluminescence, read-out: EC50 on agonizing h-KOR receptor and affecting cAMP levels. The text has this: The objective of this experiment is to determine the agonistic effect of the compounds of the present invention on human KOR (h-KOR) receptors, and to evaluate the in vitro activity of the compounds according to the values of EC50.
The compounds of the present invention can activate h-KOR receptor, thereby reducing intracellular cAMP levels. The second messenger cAMP enters the nucleus and binds to the CRE of the DNA, thereby initiating the expression of the downstream luciferase. Luciferase reacts with its substrate to emit fluorescence, and the measured fluorescence signals reflect the agonistic activity of the compounds.
The activity of the test example compounds on agonizing h-KOR and affecting downstream cAMP levels was tested by the following method.
KOR/pcDNA3.1 (+) and CRE/pGL4.29 were transferred into HEK293 cells. G418 and hygromycin were added into the culture medium, and HEK293/KOR/CRE monoclonal cell lines were screened in a 96-well cell culture plate.
HEK293/h-KOR/CRE monoclonal cells were cultured in a DMEM/high glucose medium (10% FBS, 1 mg/ml G418, 200 μg/ml hygromycin, mixed uniformly), and passaged every 3 days. On the day of the experiment, a cell suspension was prepared with a fresh cell medium, added to a 96 well plate (BD, #356692) with 20,000 cells/well, and incubated in 5% CO2 at 37° C. On the second day, the compound was dissolved in pure DMSO at a concentration of 20 mM, then formulated with DMSO to a first concentration of 200 nM and diluted in 3 fold concentration gradient to 8 concentrations. 90 μl of DMSO were added to blank and control wells. The compound solution was diluted 20-fold with DMEM/hyperglucose (SH30243.01B, Hyclone) medium containing […]. The cell culture plates inoculated on the first day were taken out, and 10 μl of the diluted drug or the control (0.5% DMSO) was added to each well. The plate was gently shaken, and placed at 37° C. for 4 hours. In a 96-well cell culture plate, 100 μl of luciferase assay solution (Promega, # E6110) was added to each well. The plate was placed for 5 minutes at room temperature. The chemiluminescence value was measured using Victor 3.0. The EC50 values of the compounds were calculated using Graphpad Prism software based on each concentration of the compound and the corresponding signal value.
The activity of the compounds of the present invention on agonizing h-KOR and affecting downstream cAMP levels was determined by the above test, and the EC50 values are shown in Table 1.1.

Data set [2] can be described thus: Pharmacokinetics assay in rats after intravenous administration. The class given is in vivo. To be noted: both sexes, Sprague-Dawley, rat, plasma, SD rats, 1 mg/kg; for Vd: read-out: Apparent Distribution Volume Vz; for AUC: read-out: Area Under Curve AUC; for clearance: read-out: Clearance CL; for half-life: read-out: Half-Life t1/2 (converted); for MRT: read-out: Mean Residence Time MRT. On the procedure: Rats were used as test animals. The drug concentration in plasma at different time points was determined by LC/MS/MS after intravenous administration of the compounds of Examples 2, 5 and 8 to the rats. The pharmacokinetic behavior of the compounds of the present invention was studied and evaluated in SD rats.
12 Sprague-Dawley (SD) rats, half male and half female, were purchased from SINO-BRITISH SIPPR/BK LAB. ANIMAL LTD., CO, with License No.: SOCK (Shanghai) 2008-0016.
The appropriate amount of the test compounds was weighed, and added with 5% 5% DMSO+5% PEG400+90% normal saline successively.
After an overnight fast, 12 SD rats, half male and half female, were divided into 3 groups equally, and administered intravenously at a dose of an administration volume of 5 mL/kg.
In the venous group, blood (0.2 mL) was taken from the orbital sinus before administration and 0.25, 0.5, 1.0, 2.0, 4.0, 8.0, 11.0 and 24.0 hours after administration. The samples were stored in heparinized tubes, and centrifuged for 10 minutes at 3,500 rpm to separate the blood plasma. The plasma samples were stored at −20° C.
The concentration of the test compounds in SD rat plasma after intravenous administration was determined by LC-MS/MS.

SMILES strings stand for the structures. Where a SMILES comes first, the peptide text is derived from it. [ ]: non-standard residue; d: D form. The star is where a group is joined. Piperidin1yl(4-NH2,4-COOH) = NC1(C(=O)O)CCN(*)CC1; N(Indan-2-yl)Gly = O=C(O)CNC1Cc2ccccc2C1; Gly(NCH2CH2Ph) = O=C(O)CNCCc1ccccc1; Morpholide = C1CN(*)CCO1

T1 sequence (P41145 whole entry): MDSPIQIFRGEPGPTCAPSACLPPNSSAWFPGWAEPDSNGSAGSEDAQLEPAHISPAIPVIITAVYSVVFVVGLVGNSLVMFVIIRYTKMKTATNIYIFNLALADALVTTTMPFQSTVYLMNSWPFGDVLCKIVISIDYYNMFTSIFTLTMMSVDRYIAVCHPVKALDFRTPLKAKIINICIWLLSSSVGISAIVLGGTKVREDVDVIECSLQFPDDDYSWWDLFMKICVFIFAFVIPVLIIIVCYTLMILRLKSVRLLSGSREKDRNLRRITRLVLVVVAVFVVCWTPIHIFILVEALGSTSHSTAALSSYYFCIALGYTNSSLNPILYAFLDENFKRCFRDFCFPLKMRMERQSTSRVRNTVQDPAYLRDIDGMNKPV

With `CC(C)C[C@@H](NC(=O)[C@@H](Cc1ccccc1)NC(=O)CNCC1(c2ccccc2)CC1)C(=O)N[C@H](CCCCN)C(=O)N1CCC(N)(C(=O)O)CC1` [Example 1, 4-amino-1-((6R,9R,12R)-12-(4-aminobutyl)-6-benzyl-9-isobutyl-4,7,10-trioxo-1-(1-phenylcyclopropyl)-2,5,8,11-tetraazatridecan-13-oyl)piperidine-4-carboxylic acid], in data set [1], the EC50 is 0.056 nM.

Take `CC(C)C[C@@H](NC(=O)[C@@H](Cc1ccccc1)NC(=O)CNC[C@@H](C)c1ccccc1)C(=O)N[C@H](CCCCN)C(=O)N1CCC(N)(C(=O)O)CC1` [Example 2, 4-amino-1-((2R,5R,8R,14S)-2-(4-aminobutyl)-8-benzyl-5-isobutyl-4,7,10-trioxo-14-phenyl-3,6,9,12-tetraazapentadecan-1-oyl)piperidine-4-carboxylic acid]: the half-maximal effective concentration (EC50) in data set [1] stood at 0.015 nM. For the same compound, in data set [2], the Vd came out at 0.28 ± 0.046 L/kg, the area under the curve (AUC) worked out at 2.56 ± 0.427 µg·h/mL, the clearance turned out to be 0.4 ± 0.0768 L/h/kg and the half-life was 29.3 ± 1.56 min. The MRT in data set [2] came to 31.5 ± 5.94 min.

For the compound `CC(C)C[C@@H](NC(=O)[C@@H](Cc1ccccc1)NC(=O)CNCC(C)(C)c1ccccc1)C(=O)N[C@H](CCCCN)C(=O)N1CCC(N)(C(=O)O)CC1` [Example 3, 4-amino-1-((2R,5R,8R)-2-(4-aminobutyl)-8-benzyl-5-isobutyl-14-methyl-4,7,10-trioxo-14-phenyl-3,6,9,12-tetraazapentadecan-1-oyl)piperidine-4-carboxylic Acid], in data set [1], the EC50 amounted to 0.004 nM.

Take `CC(C)C[C@@H](NC(=O)[C@@H](Cc1ccccc1)NC(=O)CNC[C@@H](c1ccccc1)C(C)C)C(=O)N[C@H](CCCCN)C(=O)N1CCC(N)(C(=O)O)CC1` [Example 4, 4-amino-1-((2R,5R,8R,14R)-2-(4-aminobutyl)-8-benzyl-5-isobutyl-15-methyl-4,7,10-trioxo-14-phenyl-3,6,9,12-tetraazahexadecan-1-oyl)piperidine-4-carboxylic Acid]: in data set [1], the EC50 came to 0.009 nM.

Take `CC(C)C[C@@H](NC(=O)[C@@H](Cc1ccccc1)NC(=O)CN[C@H]1C[C@@H]1c1ccccc1)C(=O)N[C@H](CCCCN)C(=O)N1CCOCC1` [Example 6, (R)—N—((R)-6-amino-1-morpholino-1-oxohexan-2-yl)-4-methyl-2-((R)-3-phenyl-2-(2-(((1S,2R)-2-phenylcyclopropyl)amino)acetamido)propanamido)pentanamide]: in data set [1], the EC50 worked out at 0.079 nM.

`CCC(CNCC(=O)N[C@H](Cc1ccccc1)C(=O)N[C@H](CC(C)C)C(=O)N[C@H](CCCCN)C(=O)N1CCC(N)(C(=O)O)CC1)c1ccccc1` (stereo partly drawn) [Example 7, 4-amino-1-((2R,5R,8R)-2-(4-aminobutyl)-8-benzyl-5-isobutyl-4,7,10-trioxo-14-phenyl-3,6,9,12-tetraazahexadecan-1-oyl)piperidine-4-carboxylic Acid]: the concentration for a half-maximal effect (EC50) in data set [1] was 0.003 nM.

Regarding `CC(C)C[C@@H](NC(=O)[C@@H](Cc1ccccc1)NC(=O)CNCCc1ccccc1)C(=O)N[C@H](CCCCN)C(=O)N1CCC(N)(C(=O)O)CC1` [Example 8, 4-amino-1-((2R,5R,8R)-2-(4-aminobutyl)-8-benzyl-5-isobutyl-4,7,10-trioxo-14-phenyl-3,6,9,12-tetraazatetradecan-1-oyl)piperidine-4-carboxylic Acid] (H-[Gly(NCH2CH2Ph)][dF][dL][dK]-{Piperidin1yl(4-NH2,4-COOH)}), in data set [1], the EC50 is 0.013 nM. Also, in data set [2], the Vd came to 0.499 ± 0.111 L/kg, the area under the curve (AUC) was determined as 1.52 ± 0.436 µg·h/mL, the clearance stood at 0.696 ± 0.198 L/h/kg and the half-life was 30.1 ± 2.28 min. Besides, the MRT in data set [2] was determined as 34 ± 6.72 min.

On to `CC(C)C[C@@H](NC(=O)[C@@H](Cc1ccccc1)NC(=O)CNC1Cc2ccccc2C1)C(=O)N[C@H](CCCCN)C(=O)N1CCOCC1` [Example 10, (R)—N—((R)-6-amino-1-morpholino-1-oxohexan-2-yl)-2-((R)-2-(2-((2,3-dihydro-1H-inden-2-yl)amino)acetamido)-3-phenylpropanamido)-4-methylpentanamide] (H-[N(Indan-2-yl)Gly][dF][dL][dK]-Morpholide), for which, in data set [1], the EC50 was over 1 nM.

The values are drawn from patent US20190144499A1, “PHENYL P[…], AND MANUFACTURING METHOD AND PHARMACEUTICAL APPLICATION THEREOF” (Jiangsu Hengrui Medicine Co., Ltd., priority 2016, published 2019).
